Data taken from ChEMBL document CHEMBL1125648, “Quinazoline antifolates inhibiting thymidylate synthase: 4-thio-substituted analogues” (J Med Chem, 1991).

test system: L1210; test: Growth inhibition of L1210 cells in culture; type: functional, cell-based; details: Mus musculus

Question: For C#CCN(Cc1ccc2nc(C)nc(S)c2c1)c1ccc(C(=O)NC(CCC(=O)O)C(=O)O)cc1 (stereo not given), which IC50 is on record?
Answer: 8 µM

Question: For CCN(Cc1ccc2ncnc(SC)c2c1)c1ccc(C(=O)NC(CCC(=O)O)C(=O)O)cc1 (stereo not given), which IC50 is on record?
Answer: 15 µM

Question: With C#CCN(Cc1ccc2ncnc(S)c2c1)c1ccc(C(=O)NC(CCC(=O)O)C(=O)O)cc1 (stereo not given) as the compound, how does the IC50 read?
Answer: 7.4 µM

Question: How did the IC50 turn out when C#CCN(Cc1ccc2nc(N)nc(S)c2c1)c1ccc(C(=O)NC(CCC(=O)O)C(=O)O)cc1 (stereo not given) was run?
Answer: 18 µM

Question: Which IC50 does the source give for CCN(Cc1ccc2ncnc(S)c2c1)c1ccc(C(=O)NC(CCC(=O)O)C(=O)O)cc1 (stereo not given) here?
Answer: 31 µM
